According to patent US20090197856A1, “ANTIVIRAL COMPOUNDS” (Genelabs Technologies, Inc., priority 2007, published 2009):

biological target: T1, HCV-NS5b (Hepatitis C virus genotype 1b, UniProt Q9WMX2); assay: HCV-NS5b enzyme assay using homopolymer substrate; format: biochemical; details: not given
T1 construct: (His)6 (C); made in house; host or cells: XL-1 cells (E. coli), IPTG-inducible plasmid
Description: The coding sequence of NS5b protein was cloned by PCR from pFKI389luc/NS3-3′/ET as described by Lohmann, V., et al. (1999) Science 285, 110-113 using the primers shown on page 266 of WO 2005/012288
The cloned fragment is missing the C terminus 21 amino acid residues. The cloned fragment was inserted into an IPTG-inducible (isopropyl-β-D-thiogalactopyranoside) expression plasmid that provides an epitope tag (His)6 at the carboxy terminus of the protein.
The recombinant enzyme was expressed in XL-1 cells and after induction of expression, the protein was purified using affinity chromatography on a nickel-NTA (nitrilotriacetic acid) column. Storage condition was 10 mM Tris-HCl pH 7.5, 50 mM NaCl, 0.1 mM EDTA (ethylenediaminetetraacetic acid), 1 mM DTT (dithiothreotol), 20% glycerol at −20° C.
The polymerase activity was assayed by measuring incorporation of radiolabeled UTP into a RNA product using a biotinylated, homopolymeric template. The template was formed by annealing adenosine homopolymer to uridine 20-mer capped with a 5′-biotin group (biotin-U^20) in the ratio of 1:4. Typically, the assay mixture (50 μL) contained 25 mM Tris-HCl (pH 7.5), 40 mM KCl, 0.3 mM MgCl2, 0.05 mM EDTA, 0.2 unit/μL Superase RNAse Inhibitor, 5 mM DTT, 30 μM UTP (Uridine triphosphate), including [^3H]-UTP (uridine triphosphate) at 0.4 μCi/μL with final concentration of 1 μM, and 50 nM of homopolymeric template. Test compounds were initially dissolved in 100% DMSO and further diluted in aqueous buffer containing 5% DMSO. Typically, compounds were tested at concentrations between 2 nM and 50 μM. Reactions were started with addition of enzyme and allowed to continue at 30° C. for 90 minutes. Reactions were quenched with 8 μL of 100 mM EDTA and reaction mixtures (30 μL) were transferred to streptavidin-coated scintillation proximity microtiter plates (FlashPlates) and incubated at room temperature overnight. Incorporation of radioactivity was determined by scintillation counting.
Inhibitor IC50 values were determined by adding test compound as ten point, two-fold serial dilutions in 100% DMSO with a final reaction concentration of 5%. IC50 was calculated by plotting the % inhibition against compound concentration and fitting the data to a constrained four parameter sigmoidal curve, equivalent to the “four parameter logistic equation”:
Where Bottom is the minimum Y value, Top is the maximum Y value, and Hillslope is the slope of the linear portion of the semi-log curve. Top and Bottom were constrained to values of 0% and 100%, respectively. These analyses were performed using Graphpad Prism v.4.0 (Graphpad Software, Inc.) in conjunction with DS Accord for EXCEL 6.0 (Accelrys, Microsoft Corp.).
The table below lists the IC50 values of compounds determined using the homopolymer substrates.

SMILES	IC50 [µM]
O=C(O)c1ccc2c(C3CCCCC3)c3n(c2c1)CCCn1cc(C2=CCNCC2)c2cccc-3c21 [Compound 397]	0.218
CC(=O)c1cn2c3c(cccc13)-c1c(C3CCCCC3)c3ccc(C(=O)O)cc3n1CCC2 [Compound 402]	0.168
CCN(CC)CCC(=O)c1cn2c3c(cccc13)-c1c(C3CCCCC3)c3ccc(C(=O)O)cc3n1CCC2 [Compound 429]	0.099
CC(C)NCCC(=O)c1cn2c3c(cccc13)-c1c(C3CCCCC3)c3ccc(C(=O)O)cc3n1CCC2 [Compound 430]	0.073

same assay, conditions: homopolymer substrate, [3H]-UTP incorporation, 30° C., 90 minutes; read-out: IC50

IC50 [µM]	SMILES
0.25	CC(C)N1CCC(c2cn3c4c(cccc24)-c2c(C4CCCCC4)c4ccc(C(=O)O)cc4n2CCC3)CC1 [Compound 400]
0.14	O=C(O)c1ccc2c(C3CCCCC3)c3n(c2c1)CCCn1cc(C2CCN(CCO)CC2)c2cccc-3c21 [Compound 401]
0.207	CCC1CN2CCCn3c(c(C4CCCCC4)c4ccc(C(=O)O)cc43)-c3cccc1c32 (stereo not shown) [Compound 403]
0.257	O=C(O)c1ccc2c(C3CCCCC3)c3n(c2c1)CCCn1c(C(=O)NCCN2CCCCC2)cc2cccc-3c21 [Compound 404]
0.139	CN(C)C(=O)c1cc2cccc3c2n1CCCn1c-3c(C2CCCCC2)c2ccc(C(=O)O)cc21 [Compound 405]
0.136	O=C(O)c1ccc2c(C3CCCCC3)c3n(c2c1)CCCn1c(C(=O)N2CCCCC2)cc2cccc-3c21 [Compound 406]
0.253	O=C(O)c1ccc2c(C3CCCCC3)c3n(c2c1)CCCn1c(C(=O)O)cc2cccc-3c21 [Compound 407]
0.142	CCN(CC)C1CCN(C(=O)c2cc3cccc4c3n2CCCn2c-4c(C3CCCCC3)c3ccc(C(=O)O)cc32)CC1 [Compound 408]
0.114	CN1CCN(C(=O)c2cc3cccc4c3n2CCCn2c-4c(C3CCCCC3)c3ccc(C(=O)O)cc32)CC1 [Compound 409]
0.384	CCN(C)Cc1c(C(=O)N(C)C)n2c3c(cccc13)-c1c(C3CCCCC3)c3ccc(C(=O)O)cc3n1CCC2 [Compound 410]
0.277	CN(C)Cc1cc2cccc3c2n1CCCn1c-3c(C2CCCCC2)c2ccc(C(=O)O)cc21 [Compound 411]
0.179	CN1CCN(C(=O)c2c(Cl)c3cccc4c3n2CCCn2c-4c(C3CCCCC3)c3ccc(C(=O)O)cc32)CC1 [Compound 412]
0.105	NC(=O)c1cc2cccc3c2n1CCCn1c-3c(C2CCCCC2)c2ccc(C(=O)O)cc21 [Compound 413]
0.098	O=C(O)c1ccc2c(C3CCCCC3)c3n(c2c1)CCCn1c(CN2CCCCC2)cc2cccc-3c21 [Compound 414]
0.17	CN1CCN(Cc2cc3cccc4c3n2CCCn2c-4c(C3CCCCC3)c3ccc(C(=O)O)cc32)CC1 [Compound 415]
0.146	O=C(O)c1ccc2c(C3CCCCC3)c3n(c2c1)CCCn1c2c-3cccc2c2c(=O)[nH][nH]c(=O)c21 [Compound 416]
0.099	CNC(=O)c1cc2cccc3c2n1CCCn1c-3c(C2CCCCC2)c2ccc(C(=O)O)cc21 [Compound 417]
0.144	NCc1cc2cccc3c2n1CCCn1c-3c(C2CCCCC2)c2ccc(C(=O)O)cc21 [Compound 418]
0.18	CC(C)N1Cc2c(n3c4c(cccc24)-c2c(C4CCCCC4)c4ccc(C(=O)O)cc4n2CCC3)C1=O [Compound 419]
0.472	O=C(O)c1ccc2c(C3CCCCC3)c3n(c2c1)CCCn1c2c(c4cccc-3c41)CN(C1CCCCC1)C2=O [Compound 421]
0.121	O=C(O)c1ccc2c(C3CCCCC3)c3n(c2c1)CC1(CC1)Cn1cc(CN2CCCCC2)c2cccc-3c21 [Compound 427]
0.166	CCN(C)Cc1cn2c3c(cccc13)-c1c(C3CCCCC3)c3ccc(C(=O)O)cc3n1CC1(CC1)C2 [Compound 428]
0.201	O=C(O)c1ccc2c(C3CCCCC3)c3n(c2c1)CCCn1cc(/C(Cl)=C/CN2CCCCC2)c2cccc-3c21 [Compound 431]
0.324	CCN(CC)CC#Cc1cn2c3c(cccc13)-c1c(C3CCCCC3)c3ccc(C(=O)O)cc3n1CCC2 [Compound 432]

More lines, now with the values behind:

SMILES	IC50 [µM]
CC(C)CNCc1cn2c3c(cccc13)-c1c(C3CCCCC3)c3ccc(C(=O)O)cc3n1CCC2 [Compound 367]	0.158
CN(C)CCNCc1cn2c3c(cccc13)-c1c(C3CCCCC3)c3ccc(C(=O)O)cc3n1CCC2 [Compound 368]	0.303
CN(C)C(=O)CNCc1cn2c3c(cccc13)-c1c(C3CCCCC3)c3ccc(C(=O)O)cc3n1CCC2 [Compound 369]	0.171
O=C(O)c1ccc2c(C3CCCCC3)c3n(c2c1)CCCn1cc(CNC2CCCOC2)c2cccc-3c21 (stereo not shown) [Compound 370]	0.094
O=C(O)c1ccc2c(C3CCCCC3)c3n(c2c1)CCCn1cc(CNC2CCCC2)c2cccc-3c21 [Compound 371]	0.109
CNCc1cn2c3c(cccc13)-c1c(C3CCCCC3)c3ccc(C(=O)O)cc3n1CCC2 [Compound 372]	0.106
CS(=O)(=O)NC(=O)c1ccc2c(C3CCCCC3)c3n(c2c1)CCCn1cc(CN2CCCCC2)c2cccc-3c21 [Compound 373]	0.153
O=C(NC1CC1)c1ccc2c(C3CCCCC3)c3n(c2c1)CCCn1cc(CN2CCCCC2)c2cccc-3c21 [Compound 374]	0.365
CN(C)S(=O)(=O)NC(=O)c1ccc2c(C3CCCCC3)c3n(c2c1)CCCn1cc(CN2CCCCC2)c2cccc-3c21 [Compound 375]	0.177
CCN(C)Cc1cn2c3c(cccc13)-c1c(C3CCCCC3)c3ccc(C(=O)OC)cc3n1CCC2 [Compound 376]	0.641
O=C(O)c1ccc2c(C3CCCCC3)c3n(c2c1)CCCn1cc(CNC2CCCCC2)c2cccc-3c21 [Compound 378]	0.199
CCC(C)NCc1cn2c3c(cccc13)-c1c(C3CCCCC3)c3ccc(C(=O)O)cc3n1CCC2 (stereo not shown) [Compound 379]	0.117
O=C(O)CNCc1cn2c3c(cccc13)-c1c(C3CCCCC3)c3ccc(C(=O)O)cc3n1CCC2 [Compound 380]	0.093
COCCNCc1cn2c3c(cccc13)-c1c(C3CCCCC3)c3ccc(C(=O)O)cc3n1CCC2 [Compound 381]	0.117
CC1CCC(C)N1Cc1cn2c3c(cccc13)-c1c(C3CCCCC3)c3ccc(C(=O)O)cc3n1CCC2 (stereo not shown) [Compound 382]	0.141
O=C(O)c1ccc2c(C3CCCCC3)c3n(c2c1)CCCn1cc(CNC2CCC2)c2cccc-3c21 [Compound 383]	0.085
O=C(O)c1ccc2c(C3CCCCC3)c3n(c2c1)CCCn1cc(CN[C@H]2CC[C@H](O)CC2)c2cccc-3c21 [Compound 384]	0.065
O=C(O)c1ccc2c(C3CCCCC3)c3n(c2c1)CCCn1cc(CN2CCC(O)CC2)c2cccc-3c21 [Compound 385]	0.133
O=C(O)c1ccc2c(C3CCCCC3)c3n(c2c1)CCCn1cc(CNCc2cccnc2)c2cccc-3c21 [Compound 386]	0.196
CON(C)Cc1cn2c3c(cccc13)-c1c(C3CCCCC3)c3ccc(C(=O)O)cc3n1CCC2 [Compound 387]	0.18
O=C(O)c1ccc2c(C3CCCCC3)c3n(c2c1)CCCn1cc(CNCCO)c2cccc-3c21 [Compound 388]	0.159
O=C(O)c1ccc2c(C3CCCCC3)c3n(c2c1)CCCn1cc(CN2CCC(O)C2)c2cccc-3c21 (stereo not shown) [Compound 390]	0.237
CS(=O)(=O)CCNCc1cn2c3c(cccc13)-c1c(C3CCCCC3)c3ccc(C(=O)O)cc3n1CCC2 [Compound 391]	0.211
C[C@@H]1CC[C@@H](C)N1Cc1cn2c3c(cccc13)-c1c(C3CCCCC3)c3ccc(C(=O)O)cc3n1CCC2 [Compound 392]	0.105
CCC(C)(C)NCc1cn2c3c(cccc13)-c1c(C3CCCCC3)c3ccc(C(=O)O)cc3n1CCC2 [Compound 393]	0.138
O=C(O)c1ccc2c(C3CCCCC3)c3n(c2c1)CCCn1cc(CN2CCS(=O)(=O)CC2)c2cccc-3c21 [Compound 394]	0.159
NCc1cn2c3c(cccc13)-c1c(C3CCCCC3)c3ccc(C(=O)O)cc3n1CCC2 [Compound 395]	0.14
CC1Cn2cc(CN3CCCCC3)c3cccc(c32)-c2c(C3CCCCC3)c3ccc(C(=O)O)cc3n2C1 (stereo not shown) [Compound 396]	0.126
O=C(O)c1ccc2c(C3CCCCC3)c3n(c2c1)CCCn1cc(C2CCNCC2)c2cccc-3c21 [Compound 398]	0.204
CN1CCC(c2cn3c4c(cccc24)-c2c(C4CCCCC4)c4ccc(C(=O)O)cc4n2CCC3)CC1 [Compound 399]	0.22
